{"source": "PubChem BioAssay AID179", "about": "(DTP/NCI, 2004)", "test_system": "CEM cells HIV-1 protection, formazan growth assay", "test": "NCI AIDS Antiviral Assay", "settings": "for IC50: measured here: growth of uninfected CEM cells", "in_short": "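Screen of anti-HIV-1 activity in human CEM cells using a formazan-based growth measurement at five drug concentrations. Hits with 50% or greater protection were repeated, and confirmation required reproducible complete protection.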", "note": "The source made the active and inactive calls.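 The calls were made as follows: active = compounds giving half or more protection of infected cells from virus-caused growth loss, again on retest; inactive = the rest.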", "data": [{"compound": "CC1=C[C@H]2O[C@@H]3[C@H](O)[C@@H](O)[C@](C)(C2(COC(=O)CCl)CC1)[C@@]31CO1", "note": "(stereo not given in full)", "values": [{"measurement": "EC50", "result": "> 6.92", "unit": "µM"}, {"measurement": "IC50", "result": 0.0178, "unit": "µM"}]}, {"compound": "COC(=O)C1=C(O)c2cc(C)c(C)c(C#N)c2NC(=O)C1", "values": [{"measurement": "EC50", "result": "> 200", "unit": "µM"}, {"measurement": "IC50", "result": "> 200", "unit": "µM"}]}, {"compound": "Cn1c(=O)c2c(nnc(-c3ccccc3)[n+]2[O-])n(C)c1=O", "values": [{"measurement": "EC50", "result": "> 200", "unit": "µM"}, {"measurement": "IC50", "result": 87.1, "unit": "µM"}]}, {"compound": "Cc1ccc(N=Nc2c(N)nn3cc4c(nc23)CCCCC4)cc1", "values": [{"measurement": "EC50", "result": "> 200", "unit": "µM"}, {"measurement": "IC50", "result": "> 200", "unit": "µM"}]}, {"compound": "Cc1ccc(S(=O)(=O)OCC2COC(C)(C)O2)cc1", "note": "(stereo not given)", "values": [{"measurement": "EC50", "result": "> 871", "unit": "µM"}, {"measurement": "IC50", "result": "> 871", "unit": "µM"}]}, {"compound": "COc1ccc(Nc2nc3c(N)cc(C(F)(F)F)cc3nc2-c2ccccc2)cc1OC", "values": [{"measurement": "EC50", "result": "> 16.2", "unit": "µM"}, {"measurement": "IC50", "result": "> 16.2", "unit": "µM"}]}, {"compound": "CC12C=C3CC(OC(=O)c4ccccc4)CCC3(O1)c1ccccc12", "note": "(stereo not given)", "values": [{"measurement": "EC50", "result": "> 57.5", "unit": "µM"}, {"measurement": "IC50", "result": 32.4, "unit": "µM"}]}, {"compound": "COc1ccc(OC)c2[nH]c(CCc3nc4c(OC)ccc(OC)c4[nH]3)nc12", "values": [{"measurement": "outcome", "result": "inactive"}]}, {"compound": "Cc1cnc2nc(N)nc(N)c2n1", "values": [{"measurement": "EC50", "result": "> 200", "unit": "µM"}, {"measurement": "IC50", "result": "> 200", "unit": "µM"}]}, {"compound": "c1ccc(N2C3Sc4ncccc4C2Sc2ncccc23)cc1", "values": [{"measurement": "EC50", "result": "> 66.1", "unit": "µM"}, {"measurement": "IC50", "result": "> 66.1", "unit": "µM"}]}, {"compound": "CN(C)CCCNC(=O)c1cc(NC(=O)c2cc(NC(=O)c3cc(NC(=O)c4ccc(C(=O)Nc5cc(C(=O)Nc6cc(C(=O)Nc7cc(C(=O)NCCCN(C)C)n(C)c7)n(C)c6)n(C)c5)nc4)cn3C)cn2C)cn1C", "values": [{"measurement": "EC50", "result": 5.37, "unit": "µM"}, {"measurement": "IC50", "result": "> 100", "unit": "µM"}]}, {"compound": "O=C(O)C(CS)NCc1c2ccccc2nc2ccccc12", "note": "(stereo not given)", "values": [{"measurement": "outcome", "result": "inactive"}]}, {"compound": "Oc1c(Cl)cccc1SSc1cccc(Cl)c1O", "values": [{"measurement": "EC50", "result": "> 200", "unit": "µM"}, {"measurement": "IC50", "result": 34.7, "unit": "µM"}]}, {"compound": "COC(=O)C(Cn1cnc2c(N)ncnc21)P(=O)(OC)OC", "note": "(stereo not given)", "values": [{"measurement": "EC50", "result": "> 759", "unit": "µM"}, {"measurement": "IC50", "result": 39.8, "unit": "µM"}]}, {"compound": "BrN1C2c3ccccc3C1c1ccccc12", "values": [{"measurement": "outcome", "result": "inactive"}]}, {"compound": "CN1N=C(c2ccncc2)OC1c1ccc(Cl)c(Cl)c1", "note": "(stereo not given)", "values": [{"measurement": "EC50", "result": "> 200", "unit": "µM"}, {"measurement": "IC50", "result": 85.1, "unit": "µM"}]}, {"compound": "O=NNc1ccc(SSc2ccc(NN=O)cc2)cc1", "values": [{"measurement": "EC50", "result": "> 200", "unit": "µM"}, {"measurement": "IC50", "result": 79.4, "unit": "µM"}]}, {"compound": "CN1C(=S)CSc2ccccc21", "values": [{"measurement": "EC50", "result": "> 182", "unit": "µM"}, {"measurement": "IC50", "result": "> 182", "unit": "µM"}]}, {"compound": "COC(=O)N/N=C(\\C)CC(=O)Nc1cccc([N+](=O)[O-])c1", "values": [{"measurement": "EC50", "result": "> 447", "unit": "µM"}, {"measurement": "IC50", "result": "> 447", "unit": "µM"}]}, {"compound": "CCC(=O)N1NC(=O)C(CC)(CC)C1=O", "values": [{"measurement": "EC50", "result": "> 200", "unit": "µM"}, {"measurement": "IC50", "result": "> 200", "unit": "µM"}]}, {"compound": "N#Cc1c(N)nc2c(c(-c3ccc(Cl)cc3)nn2-c2ccccc2)c1C#N", "values": [{"measurement": "EC50", "result": "> 200", "unit": "µM"}, {"measurement": "IC50", "result": "> 200", "unit": "µM"}]}, {"compound": "Cc1cccc(C(C)(C)C)c1NC(=O)C(C#N)C1=C(Cl)C(=O)c2ccccc2C1=O", "note": "(stereo not given)", "values": [{"measurement": "EC50", "result": "> 107", "unit": "µM"}, {"measurement": "IC50", "result": 22.9, "unit": "µM"}]}, {"compound": "O=c1c(/C=N/OCCCCO/N=C/c2cc3c(cc2[N+](=O)[O-])OCO3)coc2c(Cl)cc(Cl)cc12", "values": [{"measurement": "EC50", "result": "> 200", "unit": "µM"}, {"measurement": "IC50", "result": 75.9, "unit": "µM"}]}, {"compound": "Nc1c2ccccc2nc2ccccc12", "values": [{"measurement": "EC50", "result": "> 200", "unit": "µM"}, {"measurement": "IC50", "result": 2.19, "unit": "µM"}]}, {"compound": "CSC1(Cc2ccccn2)C(=O)Nc2cccc([N+](=O)[O-])c21", "note": "(stereo not given)", "values": [{"measurement": "EC50", "result": "> 200", "unit": "µM"}, {"measurement": "IC50", "result": 31.6, "unit": "µM"}]}, {"compound": "Cn1cc(NC(=O)Nc2cc(C(=O)Nc3cc(C(=O)Nc4ccc(S(=O)(=O)O)c5cccc(S(=O)(=O)O)c45)n(C)c3)n(C)c2)cc1C(=O)Nc1cc(C(=O)Nc2ccc(S(=O)(=O)O)c3cccc(S(=O)(=O)O)c23)n(C)c1", "values": [{"measurement": "outcome", "result": "inactive"}]}, {"compound": "CN(C)Cc1cc(O)c(CN(C)C)cc1O", "values": [{"measurement": "EC50", "result": "> 200", "unit": "µM"}, {"measurement": "IC50", "result": 9.33, "unit": "µM"}]}, {"compound": "Cc1ccc2c(c1)[nH]c(=S)n2/C=C(\\c1ccccc1)S(=O)Cc1ccccc1", "note": "(stereo not given)", "values": [{"measurement": "EC50", "result": "> 200", "unit": "µM"}, {"measurement": "IC50", "result": "> 200", "unit": "µM"}]}, {"compound": "CN(C)CCOc1ccc(-c2c(Oc3ccc(Cl)cc3)c(=O)oc3ccccc23)cc1", "values": [{"measurement": "EC50", "result": "> 200", "unit": "µM"}, {"measurement": "IC50", "result": 8.13, "unit": "µM"}]}, {"compound": "Nc1ccc2[nH]c(C(=O)N3CC(CCl)c4c3cc(N)c3ccccc43)cc2c1", "note": "(stereo not given)", "values": [{"measurement": "EC50", "result": "> 0.2", "unit": "µM"}, {"measurement": "IC50", "result": 0.00417, "unit": "µM"}]}, {"compound": "CCOC(=O)N/N=C/c1cccs1", "values": [{"measurement": "EC50", "result": "> 200", "unit": "µM"}, {"measurement": "IC50", "result": "> 200", "unit": "µM"}]}, {"compound": "O=c1c2cc3ccccc3n2c(=O)c2cc3ccccc3n12", "values": [{"measurement": "EC50", "result": "> 5.01", "unit": "µM"}, {"measurement": "IC50", "result": "> 5.01", "unit": "µM"}]}, {"compound": "O=P1(c2ccccc2)c2ccccc2-c2ccccc21", "values": [{"measurement": "EC50", "result": "> 200", "unit": "µM"}, {"measurement": "IC50", "result": 102, "unit": "µM"}]}, {"compound": "C[C@]12CCC(=O)C(O)=C1CC[C@@H]1C2CC[C@]2(C)NC(=O)CCC12", "note": "(stereo not given in full)", "values": [{"measurement": "EC50", "result": "> 40.7", "unit": "µM"}, {"measurement": "IC50", "result": "> 40.7", "unit": "µM"}]}, {"compound": "CCSc1[nH]c(Nc2nc(-c3ccccc3)n(-c3ccccc3)n2)c(C(N)=O)c1C(N)=O", "values": [{"measurement": "outcome", "result": "inactive"}]}]}
